According to US20090156629A1, “INDENOISOQUINOLINE-RELEASABLE POLYMER CONJUGATES” (Enzon Pharmaceuticals, Inc., priority 2006, published 2009):

Key:
[1] = test system: standard panel of 12 tumor cell lines (NCI-H23, NCI-H522, MDA-MB-231, MDA-MB-435, SW-620, COLO 205, LOX, UACC-62, OVCAR-3, OVCAR-5, U251 and SF-295); assay: In vivo hollow fiber assay (HFA); set-up: species or system mice; conditions: out of 48; NSC 706744 at 100 and 150 mg/kg; conjugates at 12 and 18 (20k) or 9 and 12 (40k) mg/kg/dose IndQ equivalent
Description: A standard panel of 12 tumor cell lines is used for routine hollow fiber screening. These include NCI-H23, NCI-H522, MDA-MB-231, MDA-MB-435, SW-620, COLO 205, LOX, UACC-62, OVCAR-3, OVCAR-5, U251 and SF-295. A total of 3 different tumor lines are prepared for each experiment so that each mouse receives 3 intraperitoneal implants (1 of each tumor line) and 3 subcutaneous implants (1 of each tumor line). Each compound tested is administered by intraperitoneal injection at 2 dose levels. The percent net growth for each cell line in each treatment group is calculated and compared to the percent net growth in the vehicle treated controls. A 50% or greater reduction in percent net growth in the treated samples compared to the vehicle control samples is considered a positive result. […] A compound is considered for xenograft testing if it has a combined ip+sc score of 20 or greater, a sc score of 8 or greater, or produces cell death of any cell line at either dose level evaluated.
The in vivo hollow fiber assay (HFA) in mice was conducted per previously published methods using the 20 k ΔPEG-RNL9-IndQ at equivalent IndQ active doses of 12 and 18 mg/kg/dose and 40 k ΔPEG-RNL9-IndQ at equivalent IndQ active doses of 9 and 12 mg/kg/dose. For comparison, NSC 706744 (native or unmodified) was evaluated at doses of 100 and 150 mg/kg/dose which are the highest doses routinely tested.

[2] = test system: standard panel of 12 tumor cell lines (NCI-H23, NCI-H522, MDA-MB-231, MDA-MB-435, SW-620, COLO 205, LOX, UACC-62, OVCAR-3, OVCAR-5, U251 and SF-295); conditions: historic data for comparison; cited from earlier work

Row | SMILES | score in IP fibers [1] | score in SC fibers [1] | Activity [2] | Cell Death [2] | IP + SC score [2] | IP score [2] | SC score [2]
1 | COc1cc2c3c(n(CCCNCCO)c(=O)c2cc1OC)-c1cc2c(cc1C3=O)OCO2 [NSC 706744] | 6/48 | 6/48 | – | – | – | – | –
2 | CC(=O)O[C@H]1C(=O)[C@@]2(C)[C@H]([C@H](OC(=O)c3ccccc3)[C@]3(O)C[C@H](OC(=O)[C@H](O)[C@@H](NC(=O)c4ccccc4)c4ccccc4)C(C)=C1C3(C)C)[C@]1(OC(C)=O)CO[C@@H]1C[C@@H]2O [Taxol] | – | – | Active | Yes | 42 | 36 | 6
